Test [1] concerns the target T1, Recombinant His-tagged NAMPT (Homo sapiens, UniProt P43490).
T1 construct: His; host or cells: E. coli
The test is described as follows: Biochemical inhibition assay: NAMPT enzymatic reaction, NMN quantified by mass spectrometry. To be noted: 33 nM NAMPT, 1 μM NAM, 100 μM PRPP, 30 minutes at room temperature, read-out: Biochem IC50. The procedure: Biochemical Inhibition Assay
NAMPT Protein Purification
Recombinant His-tagged NAMPT was produced in E. coli cells, purified over a Ni column, and further purified over a size-exclusion column by XTAL Biostructures.
The NAMPT Enzymatic Reaction
The NAMPT enzymatic reactions were carried out in Buffer A (50 mM Hepes pH 7.5, 50 mM NaCl, 5 mM MgCl2, and 1 mM THP) in 96-well V-bottom plates. The compound titrations were performed in a separate dilution plate by serially diluting the compounds in DMSO to make a 100× stock. […] The compound and enzyme mix was incubated for 15 minutes at room temperature, then 10 μL of 10× substrate and co-factors in Buffer A were added to the test well to make a final concentration of 1 μM NAM, 100 μM 5-Phospho-D-ribose 1-diphosphate (PRPP), and 2.5 mM Adenosine 5′-triphosphate (ATP). The reaction was allowed to proceed for 30 minutes at room temperature, then was quenched with the addition of 11 μL of a solution of formic acid and L-Cystathionine to make a final concentration of 1% formic acid and 10 μM L-Cystathionine. Background and signal strength was determined by addition (or non-addition) of a serial dilution of NMN to a pre-quenched enzyme and cofactor mix.
A mass spectrometry-based assay was used to measure the Nampt reaction product (NMN) and the internal control (L-Cystathionine). NMN and L-Cystathionine were detected using the services of Biocius Lifesciences with the RapidFire system. In short, the NMN and L-Cystathionine are bound to a graphitic carbon cartridge in 0.1% formic acid, eluted in 30% acetonitrile buffer, and injected into a Sciex 4000 mass spectrometer. The components of the sample were ionized with electrospray ionization and the positive ions were detected. […] The fragments are quantified and the analyzed by the following method.
First the NMN signal is normalized to the L-Cystathionine signal by dividing the NMN signal by the L-Cystathionine signal for each well. The signal from the background wells are averaged and subtracted from the test plates.
Wherein x denotes the average signal of the compound treated wells and y denotes the average signal of the DMSO treated wells.
IC50s are Determined Using Excel and this Formula.
Wherein X denotes the compound concentration 1, Y denotes the compound concentration 2, XX denotes the % inhibition at compound concentration 1 (X), and YY denotes the % inhibition at compound concentration 2 (Y).

The next test has as its system A2780 cells. The test is described as follows: In-vitro cell proliferation assay (SRB, 72 hours). Conditions: sulforhodamine B (SRB) assay. It is filed as cell-based. As for the experimental part: In-Vitro Cell Proliferation Assay
After overnight incubation at 37° C. and 5% CO2, the compound titrations were performed in a separate dilution plate by serially diluting the compounds in DMSO to make a 1000× stock. The compounds were then further diluted to 10× final concentration in culture media, whereupon 20 μL of each dilution was added to the plated cells with controls (e.g. DMSO and blank) to make a final volume of 200 μL. The final DMSO concentration in each well was 0.1%. The plates were then incubated for 72 hours at 37° C. in a 5% CO2 incubator. The number of viable cells was then assessed using sulforhodamine B (SRB) assay. Cells were fixed at 4° C. for 1 hour with the addition of 50 μL 30% trichloroacetic acid (TCA) to make a final concentration of 6% TCA. The plates were washed four times with H2O and allowed to dry for at least 1 hour, whereupon 100 μL of a 4% SRB in 1% acetic acid solution was added to each well and incubated at room temperature for at least 30 minutes. The plates were then washed three times with 1% acetic acid, dried, and treated with 100 μL of 10 mM Tris-Base solution. The plates were then read in a microplate reader at an absorbance of 570 nm. Background was generated on a separate plate with media only.
Method for Determining % Inhibition
First, the signals from the background plate are averaged, then the background was subtracted from the test plates.
wherein x denotes the average signal of the compound-treated cells and y denotes the average signal of the DMSO-treated cells.
wherein X denotes the compound concentration 1, Y denotes the compound concentration 2, XX denotes the % inhibition at compound concentration 1 (X), and YY denotes the % inhibition at compound concentration 2 (Y).

For orientation: pIC50 means the IC50 on a negative log10 scale, so that one unit is a factor of ten.

Molecules are shown by their SMILES. pIC50: −log10 of the molar value. Where two headings read alike, the source gives them in different places.

T1 sequence (P43490 whole entry): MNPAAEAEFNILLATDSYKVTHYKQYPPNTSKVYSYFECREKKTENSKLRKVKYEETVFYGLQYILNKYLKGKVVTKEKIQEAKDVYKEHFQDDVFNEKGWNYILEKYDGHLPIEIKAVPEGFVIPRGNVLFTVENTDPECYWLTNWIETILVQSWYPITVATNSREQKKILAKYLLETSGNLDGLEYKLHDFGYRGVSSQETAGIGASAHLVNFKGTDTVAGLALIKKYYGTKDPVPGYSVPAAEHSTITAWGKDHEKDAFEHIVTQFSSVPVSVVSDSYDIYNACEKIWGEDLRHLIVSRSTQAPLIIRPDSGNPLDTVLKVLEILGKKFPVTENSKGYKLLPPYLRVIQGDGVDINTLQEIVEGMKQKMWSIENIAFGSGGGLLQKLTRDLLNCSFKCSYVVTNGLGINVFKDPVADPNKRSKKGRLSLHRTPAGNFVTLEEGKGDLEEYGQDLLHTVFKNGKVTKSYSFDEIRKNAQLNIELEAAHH

`O=C(NCCCCC1CCN(C(=O)c2ccc3c(c2)OCO3)CC1)c1ccc2nccn2c1` [N-(4-{1-[(2H-1,3-benzodioxol-5-yl)carbonyl]piperidin-4-yl}butyl)imidazo[1,2-a]pyridine-6-carboxamide]: the pIC50 in test [1] (2.5 mM ATP) is 7.67; in the test with A2780 cells (Homo sapiens), 7.53.

On to `Cn1cnc(C(=O)N2CCC(CCCCNC(=O)c3ccc4nccn4c3)CC2)c1` [N-(4-{1-[(1-methyl-1H-imidazol-4-yl)carbonyl]piperidin-4-yl}butyl)imidazo[1,2-a]pyridine-6-carboxamide], for which the pIC50 in test [1] (2.5 mM ATP) is 7.25; in the test with A2780 cells (Homo sapiens), 6.97.

For `COc1cc(OC)cc(C(=O)N2CCC(CCCCNC(=O)c3cc4ccncc4s3)CC2)c1` [N-(4-{1-[(3,5-dimethoxyphenyl)carbonyl]piperidin-4-yl}butyl)thieno[2,3-c]pyridine-2-carboxamide], the pIC50 in test [1] (2.5 mM ATP) was 7.24; with A2780 cells (Homo sapiens) it was 7.69.

On to `CCOc1cccc(C(=O)N2CCC(CCCCNC(=O)c3ccc4nccn4c3)CC2)c1` [N-(4-{1-[(3-ethoxyphenyl)carbonyl]piperidin-4-yl}butyl)imidazo[1,2-a]pyridine-6-carboxamide], for which the pIC50 in test [1] (2.5 mM ATP) was 7.99; with A2780 cells (Homo sapiens), 7.88.

Regarding `O=C(NCCCCC1CCN(C(=O)c2ccc(OC(F)F)cc2)CC1)c1ccc2nccn2c1` [N-[4-(1-{[4-(difluoromethoxy)phenyl]carbonyl}piperidin-4-yl)butyl]imidazo[1,2-a]pyridine-6-carboxamide], the values for the pIC50 (in test [1] (2.5 mM ATP); in the test on A2780 cells (Homo sapiens)) were 7.37 and 7.00, respectively.

As for `Cn1cc(CC(=O)N2CCC(CCCCNC(=O)c3cc4ccncc4s3)CC2)c2ccccc21` [N-(4-{1-[2-(1-methyl-1H-indol-3-yl)acetyl]piperidin-4-yl}butyl)thieno[2,3-c]pyridine-2-carboxamide], the pIC50 in test [1] (2.5 mM ATP) is 7.94; with A2780 cells (Homo sapiens), 7.62.

Turning to `Cn1c(C(=O)N2CCC(CCCCNC(=O)c3cc4cnccc4[nH]3)CC2)cc2ccccc21` [N-(4-{1-[(1-methyl-1H-indol-2-yl)carbonyl]piperidin-4-yl}butyl)-1H-pyrrolo[3,2-c]pyridine-2-carboxamide], the figures for the pIC50 (in test [1] (2.5 mM ATP); in the test with A2780 cells (Homo sapiens)) were 6.87 and 7.62, respectively.

Regarding `O=C(NCCCCC1CCN(C(=O)c2ccc3ncsc3c2)CC1)c1cc2ccncc2s1` [N-(4-{1-[(1,3-benzothiazol-6-yl)carbonyl]piperidin-4-yl}butyl)thieno[2,3-c]pyridine-2-carboxamide], the values for the pIC50 (in test [1] (2.5 mM ATP); with A2780 cells (Homo sapiens)) were 7.49 and 7.45, respectively.

Regarding `O=C(NCCCCC1CCN(C(=O)c2cccc(Cl)c2)CC1)c1cc2ccncc2s1` [N-(4-{1-[(3-chlorophenyl)carbonyl]piperidin-4-yl}butyl)thieno[2,3-c]pyridine-2-carboxamide], the pIC50 was 7.48 in test [1] (2.5 mM ATP) and 7.34 with A2780 cells (Homo sapiens).

Consider `O=C(NCCCCC1CCN(C(=O)c2ccc(C(F)(F)F)nc2)CC1)c1ccc2nccn2c1` [N-[4-(1-{[6-(trifluoromethyl)pyridin-3-yl]carbonyl}piperidin-4-yl)butyl]imidazo[1,2-a]pyridine-6-carboxamide], for which the figures for the pIC50 (in test [1] (2.5 mM ATP); in the test with A2780 cells (Homo sapiens)) were 7.04 and 7.03, respectively.

Consider `CC(C)c1ccc(C(=O)N2CCC(CCCCNC(=O)c3cc4cnccc4[nH]3)CC2)cn1` [N-[4-(1-{[6-(propan-2-yl)pyridin-3-yl]carbonyl}piperidin-4-yl)butyl]-1H-pyrrolo[3,2-c]pyridine-2-carboxamide], for which the pIC50 is 7.06 in test [1] (2.5 mM ATP) and 7.88 in the test with A2780 cells (Homo sapiens).

Take `O=C(NCCCCC1CCN(C(=O)c2ccc(Cl)c(Cl)c2)CC1)c1cc2ccncc2s1` [N-(4-{1-[(3,4-dichlorophenyl)carbonyl]piperidin-4-yl}butyl)thieno[2,3-c]pyridine-2-carboxamide]: the pIC50 in test [1] (2.5 mM ATP) is 7.46; in the test with A2780 cells (Homo sapiens) it was 6.00 to 7.00.

With `COCc1ccc(C(=O)N2CCC(CCCCNC(=O)c3cc4cnccc4[nH]3)CC2)nc1` [N-[4-(1-{[5-(methoxymethyl)pyridin-2-yl]carbonyl}piperidin-4-yl)butyl]-1H-pyrrolo[3,2-c]pyridine-2-carboxamide], the pIC50 is 7.51 in test [1] (2.5 mM ATP) and 7.85 in the test with A2780 cells (Homo sapiens).

Turning to `O=C(NCCCCC1CCN(C(=O)c2cccc(F)c2F)CC1)c1cc2ccncc2s1` [N-(4-{1-[(2,3-difluorophenyl)carbonyl]piperidin-4-yl}butyl)thieno[2,3-c]pyridine-2-carboxamide], the negative logarithm of the IC50 (pIC50) in test [1] (2.5 mM ATP) was 8.17; with A2780 cells (Homo sapiens), 8.35.

In the case of `COc1ccc(OC)c(S(=O)(=O)N2CCC(CCCCNC(=O)c3cc4cnccc4[nH]3)CC2)c1` [N-(4-{1-[(2,5-dimethoxybenzene)sulfonyl]piperidin-4-yl}butyl)-1H-pyrrolo[3,2-c]pyridine-2-carboxamide], the pIC50 in test [1] ([…] ATP) was 7.55; in the test with A2780 cells it was 8.74.

Turning to `COc1ccc(Cl)cc1C(=O)N1CCC(CCCCNC(=O)c2cc3ccncc3s2)CC1` [N-(4-{1-[(5-chloro-2-methoxyphenyl)carbonyl]piperidin-4-yl}butyl)thieno[2,3-c]pyridine-2-carboxamide], the figures for the pIC50 (in test [1] (2.5 mM ATP); in the test with A2780 cells (Homo sapiens)) were 7.85 and 8.48, respectively.

Consider `O=C(NCCCCC1CCN(C(=O)c2ccc(C(F)(F)F)nc2)CC1)c1cc2ccncc2s1` [N-[4-(1-{[6-(trifluoromethyl)pyridin-3-yl]carbonyl}piperidin-4-yl)butyl]thieno[2,3-c]pyridine-2-carboxamide], for which the pIC50 in test [1] (2.5 mM ATP) is 7.04; in the test on A2780 cells (Homo sapiens) it was 6.38.

As to `O=C(NCCCCC1CCN(C(=O)c2ccc(Cl)cc2)CC1)c1cc2ccncc2s1` [N-(4-{1-[(4-chlorophenyl)carbonyl]piperidin-4-yl}butyl)thieno[2,3-c]pyridine-2-carboxamide], the pIC50 in test [1] (2.5 mM ATP) was 7.64; in the test on A2780 cells (Homo sapiens), 5.00 to 6.00.

As to `COc1cccc(OC)c1C(=O)N1CCC(CCCCNC(=O)c2ccc3nccn3c2)CC1` [N-(4-{1-[(2,6-dimethoxyphenyl)carbonyl]piperidin-4-yl}butyl)imidazo[1,2-a]pyridine-6-carboxamide], the results for the pIC50 (in test [1] (2.5 mM ATP); with A2780 cells (Homo sapiens)) were 7.54 and 9.00, respectively.

In the case of `O=C(NCCCCC1CCN(C(=O)c2ccccn2)CC1)c1cc2cnccc2[nH]1` [N-(4-{1-[(pyridin-2-yl)carbonyl]piperidin-4-yl}butyl)-1H-pyrrolo[3,2-c]pyridine-2-carboxamide], the figures for the pIC50 (in test [1] (2.5 mM ATP); in the test on A2780 cells (Homo sapiens)) were 7.51 and 8.20, respectively.

In the case of `O=C(NCCCCC1CCN(S(=O)(=O)c2cccc(Cl)c2)CC1)c1cc2cnccc2[nH]1` [N-(4-{1-[(3-chlorobenzene)sulfonyl]piperidin-4-yl}butyl)-1H-pyrrolo[3,2-c]pyridine-2-carboxamide], the pIC50 in test [1] (2.5 mM ATP) is 7.41; in the test with A2780 cells (Homo sapiens), 7.56.

`O=C(NCCCCC1CCN(C(=O)c2ccc(N3CCOCC3)nc2)CC1)c1ccc2nccn2c1` [N-[4-(1-{[6-(morpholin-4-yl)pyridin-3-yl]carbonyl}piperidin-4-yl)butyl]imidazo[1,2-a]pyridine-6-carboxamide]: the pIC50 in test [1] (2.5 mM ATP) was 7.89; with A2780 cells (Homo sapiens) it was 8.23.

Regarding `O=C(NCCCCC1CCN(C(=O)c2cccc(F)c2F)CC1)c1cc2cnccc2[nH]1` [N-(4-{1-[(2,3-difluorophenyl)carbonyl]piperidin-4-yl}butyl)-1H-pyrrolo[3,2-c]pyridine-2-carboxamide], the results for the pIC50 (in test [1] (2.5 mM ATP); in the test on A2780 cells (Homo sapiens)) were 7.92 and 8.47, respectively.

The values above are taken from patent US9555039B2, “Piperidine derivatives and compositions for the inhibition of nicotinamide phosphoribosyltransferase (NAMPT)” (Forma TM, LLC., priority 2011, dated 2017).
